ChEMBL document CHEMBL4507319 (2021)

How the values were obtained:
Conditions in all cases: Compound concentration 1000.0 nM
[1] = biological target: Cyclin-dependent kinase 3 (Homo sapiens) (UniProt Q00526)
[2] = biological target: 3-phosphoinositide-dependent protein kinase 1 (Homo sapiens) (UniProt O15530)
[3] = biological target: Casein kinase I isoform epsilon (Homo sapiens) (UniProt P49674)
[4] = biological target: Citron Rho-interacting kinase (Homo sapiens) (UniProt O14578)
[5] = biological target: T1, Ephrin type-B receptor 3 (Homo sapiens) (UniProt P54753)
T1 sequence (whole entry): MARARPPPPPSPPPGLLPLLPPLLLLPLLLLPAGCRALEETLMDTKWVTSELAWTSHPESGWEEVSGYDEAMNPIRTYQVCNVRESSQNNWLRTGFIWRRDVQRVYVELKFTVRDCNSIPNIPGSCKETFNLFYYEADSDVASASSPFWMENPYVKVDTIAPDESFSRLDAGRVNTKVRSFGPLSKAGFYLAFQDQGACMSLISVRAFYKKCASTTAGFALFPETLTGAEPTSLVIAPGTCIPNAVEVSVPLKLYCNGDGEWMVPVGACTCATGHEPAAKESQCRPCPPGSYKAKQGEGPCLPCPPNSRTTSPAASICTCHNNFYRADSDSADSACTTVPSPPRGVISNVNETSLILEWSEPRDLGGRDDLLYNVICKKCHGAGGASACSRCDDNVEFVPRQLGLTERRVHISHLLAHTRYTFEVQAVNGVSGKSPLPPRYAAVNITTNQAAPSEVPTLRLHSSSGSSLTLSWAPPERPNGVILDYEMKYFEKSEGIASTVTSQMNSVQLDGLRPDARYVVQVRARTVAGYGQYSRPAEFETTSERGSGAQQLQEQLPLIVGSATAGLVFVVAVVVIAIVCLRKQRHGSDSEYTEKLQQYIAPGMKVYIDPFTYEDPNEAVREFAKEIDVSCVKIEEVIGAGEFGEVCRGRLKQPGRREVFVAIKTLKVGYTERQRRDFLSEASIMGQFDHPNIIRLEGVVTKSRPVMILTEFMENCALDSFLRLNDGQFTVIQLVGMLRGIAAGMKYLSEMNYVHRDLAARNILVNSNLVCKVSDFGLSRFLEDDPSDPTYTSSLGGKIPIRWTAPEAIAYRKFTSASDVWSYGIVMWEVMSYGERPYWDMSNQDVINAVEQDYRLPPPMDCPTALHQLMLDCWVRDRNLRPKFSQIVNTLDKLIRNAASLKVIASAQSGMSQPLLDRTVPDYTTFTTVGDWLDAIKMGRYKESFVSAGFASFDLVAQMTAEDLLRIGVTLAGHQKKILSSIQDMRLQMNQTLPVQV

[6] = system: ALK tyrosine kinase receptor (Homo sapiens), Q9UM73 [L1196M]
[7] = biological target: Serine/threonine-protein kinase pim-1 (Homo sapiens) (UniProt P11309)
[8] = biological target: Mitogen-activated protein kinase 7 (Homo sapiens) (UniProt Q13164)
[9] = biological target: Serine/threonine-protein kinase MRCK alpha (Homo sapiens) (UniProt Q5VT25)
[10] = biological target: T2, Calcium/calmodulin-dependent protein kinase type IV (Homo sapiens) (UniProt Q16566)
T2 sequence (whole entry): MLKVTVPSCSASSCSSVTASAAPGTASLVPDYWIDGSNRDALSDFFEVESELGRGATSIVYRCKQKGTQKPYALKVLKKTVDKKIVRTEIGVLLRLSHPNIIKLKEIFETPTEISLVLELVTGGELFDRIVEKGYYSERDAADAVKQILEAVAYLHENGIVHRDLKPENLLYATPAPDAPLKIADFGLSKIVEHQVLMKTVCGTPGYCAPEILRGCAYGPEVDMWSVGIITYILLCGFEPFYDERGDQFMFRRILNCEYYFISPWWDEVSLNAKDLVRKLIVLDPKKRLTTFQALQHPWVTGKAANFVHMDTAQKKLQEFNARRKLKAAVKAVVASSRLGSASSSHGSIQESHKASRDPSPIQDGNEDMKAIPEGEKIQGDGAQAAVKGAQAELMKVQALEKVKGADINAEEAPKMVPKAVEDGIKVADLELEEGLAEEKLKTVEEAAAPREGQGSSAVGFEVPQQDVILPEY

[11] = biological target: Serine/threonine-protein kinase N1 (Homo sapiens) (UniProt Q16512)
[12] = biological target: Calcium/calmodulin-dependent protein kinase type 1D (Homo sapiens) (UniProt Q8IU85)

Measured: residual activity

Sequence of 3-phosphoinositide-dependent protein kinase 1 (Homo sapiens) (O15530 whole entry, canonical isoform): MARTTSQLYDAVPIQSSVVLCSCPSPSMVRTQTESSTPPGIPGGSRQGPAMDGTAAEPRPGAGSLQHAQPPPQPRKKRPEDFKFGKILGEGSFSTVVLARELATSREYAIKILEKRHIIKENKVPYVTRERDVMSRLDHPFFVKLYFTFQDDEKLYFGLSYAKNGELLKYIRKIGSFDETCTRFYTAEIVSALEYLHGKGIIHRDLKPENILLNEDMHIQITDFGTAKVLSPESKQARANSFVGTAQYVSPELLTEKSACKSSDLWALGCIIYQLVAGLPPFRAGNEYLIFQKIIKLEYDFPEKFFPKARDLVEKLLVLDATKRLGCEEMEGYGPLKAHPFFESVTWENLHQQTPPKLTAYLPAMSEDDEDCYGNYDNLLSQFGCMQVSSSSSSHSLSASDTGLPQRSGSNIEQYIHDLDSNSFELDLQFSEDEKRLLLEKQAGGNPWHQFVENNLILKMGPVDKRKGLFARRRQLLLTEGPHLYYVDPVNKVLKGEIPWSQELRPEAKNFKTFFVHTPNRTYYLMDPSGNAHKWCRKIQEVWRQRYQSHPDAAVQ
Sequence of Calcium/calmodulin-dependent protein kinase type 1D (Homo sapiens) (Q8IU85 whole entry, looked up): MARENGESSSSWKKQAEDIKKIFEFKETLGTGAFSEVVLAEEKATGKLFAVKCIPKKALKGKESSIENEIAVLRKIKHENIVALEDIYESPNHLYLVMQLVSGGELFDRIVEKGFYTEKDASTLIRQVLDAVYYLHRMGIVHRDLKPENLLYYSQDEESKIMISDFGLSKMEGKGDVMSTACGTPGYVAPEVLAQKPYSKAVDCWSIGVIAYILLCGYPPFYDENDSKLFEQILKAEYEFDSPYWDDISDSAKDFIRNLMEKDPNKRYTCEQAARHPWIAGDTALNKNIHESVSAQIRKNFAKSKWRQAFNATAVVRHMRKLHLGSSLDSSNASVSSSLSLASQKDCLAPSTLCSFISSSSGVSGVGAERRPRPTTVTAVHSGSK
Sequence of Casein kinase I isoform epsilon (Homo sapiens) (P49674 whole entry, looked up, canonical isoform): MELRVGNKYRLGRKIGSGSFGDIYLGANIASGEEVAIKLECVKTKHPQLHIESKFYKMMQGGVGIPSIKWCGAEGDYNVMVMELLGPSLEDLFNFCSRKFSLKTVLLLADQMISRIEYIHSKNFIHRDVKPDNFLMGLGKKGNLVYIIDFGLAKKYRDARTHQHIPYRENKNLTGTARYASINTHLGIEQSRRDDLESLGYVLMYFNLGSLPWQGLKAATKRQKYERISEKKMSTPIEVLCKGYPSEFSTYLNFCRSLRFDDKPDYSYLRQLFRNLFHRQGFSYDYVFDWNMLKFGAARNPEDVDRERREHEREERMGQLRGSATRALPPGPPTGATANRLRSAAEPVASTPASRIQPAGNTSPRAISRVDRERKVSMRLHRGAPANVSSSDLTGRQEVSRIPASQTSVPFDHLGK
Sequence of Mitogen-activated protein kinase 7 (Homo sapiens) (Q13164 2-816 limits assumed): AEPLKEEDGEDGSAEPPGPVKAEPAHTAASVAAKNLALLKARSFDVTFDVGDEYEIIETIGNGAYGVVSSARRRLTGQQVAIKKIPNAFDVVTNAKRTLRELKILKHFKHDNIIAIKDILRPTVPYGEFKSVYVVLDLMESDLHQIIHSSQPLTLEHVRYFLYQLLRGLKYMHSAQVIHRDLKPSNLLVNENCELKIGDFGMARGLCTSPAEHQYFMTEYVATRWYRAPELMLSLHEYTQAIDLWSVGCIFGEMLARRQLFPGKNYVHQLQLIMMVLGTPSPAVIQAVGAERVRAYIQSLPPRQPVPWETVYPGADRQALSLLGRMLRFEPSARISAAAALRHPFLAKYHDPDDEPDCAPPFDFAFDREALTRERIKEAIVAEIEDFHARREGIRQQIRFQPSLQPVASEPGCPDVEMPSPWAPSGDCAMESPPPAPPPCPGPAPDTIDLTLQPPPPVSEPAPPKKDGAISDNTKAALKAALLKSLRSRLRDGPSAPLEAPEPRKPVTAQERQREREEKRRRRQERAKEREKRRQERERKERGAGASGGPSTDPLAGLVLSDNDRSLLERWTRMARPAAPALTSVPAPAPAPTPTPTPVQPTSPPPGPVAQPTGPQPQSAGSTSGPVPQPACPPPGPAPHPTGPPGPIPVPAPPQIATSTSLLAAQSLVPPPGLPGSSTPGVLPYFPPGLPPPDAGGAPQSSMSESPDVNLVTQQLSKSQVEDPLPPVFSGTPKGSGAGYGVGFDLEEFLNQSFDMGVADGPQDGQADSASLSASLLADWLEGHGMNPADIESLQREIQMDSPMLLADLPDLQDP
Sequence of Serine/threonine-protein kinase N1 (Homo sapiens) (Q16512 2-942 limits assumed): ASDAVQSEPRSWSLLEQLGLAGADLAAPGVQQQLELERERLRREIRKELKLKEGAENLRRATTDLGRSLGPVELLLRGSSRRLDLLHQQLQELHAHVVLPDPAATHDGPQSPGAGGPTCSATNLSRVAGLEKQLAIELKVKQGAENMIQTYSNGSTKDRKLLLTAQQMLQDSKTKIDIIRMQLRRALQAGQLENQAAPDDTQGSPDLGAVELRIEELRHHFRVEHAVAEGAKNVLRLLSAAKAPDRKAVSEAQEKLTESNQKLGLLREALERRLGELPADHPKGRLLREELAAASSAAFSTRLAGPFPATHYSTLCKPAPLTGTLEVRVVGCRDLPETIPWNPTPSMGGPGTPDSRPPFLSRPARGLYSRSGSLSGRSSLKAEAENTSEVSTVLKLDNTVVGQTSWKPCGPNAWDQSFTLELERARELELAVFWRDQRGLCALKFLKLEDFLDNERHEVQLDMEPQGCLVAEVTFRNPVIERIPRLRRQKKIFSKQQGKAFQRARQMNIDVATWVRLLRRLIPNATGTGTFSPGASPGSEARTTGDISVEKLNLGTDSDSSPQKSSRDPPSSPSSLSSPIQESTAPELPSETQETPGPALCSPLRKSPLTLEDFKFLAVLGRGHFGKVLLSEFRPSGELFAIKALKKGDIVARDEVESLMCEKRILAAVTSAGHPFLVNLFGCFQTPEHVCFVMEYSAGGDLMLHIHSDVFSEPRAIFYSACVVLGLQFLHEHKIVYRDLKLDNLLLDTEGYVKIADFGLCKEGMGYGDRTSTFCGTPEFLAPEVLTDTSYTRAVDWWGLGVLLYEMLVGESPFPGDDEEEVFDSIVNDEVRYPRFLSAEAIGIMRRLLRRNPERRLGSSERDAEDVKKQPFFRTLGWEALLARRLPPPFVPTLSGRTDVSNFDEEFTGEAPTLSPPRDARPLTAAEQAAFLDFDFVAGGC
Sequence of Cyclin-dependent kinase 3 (Homo sapiens) (Q00526 whole entry, looked up): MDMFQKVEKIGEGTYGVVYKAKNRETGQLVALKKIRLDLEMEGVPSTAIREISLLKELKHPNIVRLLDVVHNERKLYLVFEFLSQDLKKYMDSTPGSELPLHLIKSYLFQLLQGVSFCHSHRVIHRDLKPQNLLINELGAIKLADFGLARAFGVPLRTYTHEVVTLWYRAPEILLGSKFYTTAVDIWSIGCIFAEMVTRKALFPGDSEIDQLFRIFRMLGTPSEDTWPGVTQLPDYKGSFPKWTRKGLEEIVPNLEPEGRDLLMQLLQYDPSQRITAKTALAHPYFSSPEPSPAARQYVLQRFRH
Sequence of ALK tyrosine kinase receptor (Homo sapiens), Q9UM73 [L1196M] (Q9UM73 whole entry L1196M, looked up): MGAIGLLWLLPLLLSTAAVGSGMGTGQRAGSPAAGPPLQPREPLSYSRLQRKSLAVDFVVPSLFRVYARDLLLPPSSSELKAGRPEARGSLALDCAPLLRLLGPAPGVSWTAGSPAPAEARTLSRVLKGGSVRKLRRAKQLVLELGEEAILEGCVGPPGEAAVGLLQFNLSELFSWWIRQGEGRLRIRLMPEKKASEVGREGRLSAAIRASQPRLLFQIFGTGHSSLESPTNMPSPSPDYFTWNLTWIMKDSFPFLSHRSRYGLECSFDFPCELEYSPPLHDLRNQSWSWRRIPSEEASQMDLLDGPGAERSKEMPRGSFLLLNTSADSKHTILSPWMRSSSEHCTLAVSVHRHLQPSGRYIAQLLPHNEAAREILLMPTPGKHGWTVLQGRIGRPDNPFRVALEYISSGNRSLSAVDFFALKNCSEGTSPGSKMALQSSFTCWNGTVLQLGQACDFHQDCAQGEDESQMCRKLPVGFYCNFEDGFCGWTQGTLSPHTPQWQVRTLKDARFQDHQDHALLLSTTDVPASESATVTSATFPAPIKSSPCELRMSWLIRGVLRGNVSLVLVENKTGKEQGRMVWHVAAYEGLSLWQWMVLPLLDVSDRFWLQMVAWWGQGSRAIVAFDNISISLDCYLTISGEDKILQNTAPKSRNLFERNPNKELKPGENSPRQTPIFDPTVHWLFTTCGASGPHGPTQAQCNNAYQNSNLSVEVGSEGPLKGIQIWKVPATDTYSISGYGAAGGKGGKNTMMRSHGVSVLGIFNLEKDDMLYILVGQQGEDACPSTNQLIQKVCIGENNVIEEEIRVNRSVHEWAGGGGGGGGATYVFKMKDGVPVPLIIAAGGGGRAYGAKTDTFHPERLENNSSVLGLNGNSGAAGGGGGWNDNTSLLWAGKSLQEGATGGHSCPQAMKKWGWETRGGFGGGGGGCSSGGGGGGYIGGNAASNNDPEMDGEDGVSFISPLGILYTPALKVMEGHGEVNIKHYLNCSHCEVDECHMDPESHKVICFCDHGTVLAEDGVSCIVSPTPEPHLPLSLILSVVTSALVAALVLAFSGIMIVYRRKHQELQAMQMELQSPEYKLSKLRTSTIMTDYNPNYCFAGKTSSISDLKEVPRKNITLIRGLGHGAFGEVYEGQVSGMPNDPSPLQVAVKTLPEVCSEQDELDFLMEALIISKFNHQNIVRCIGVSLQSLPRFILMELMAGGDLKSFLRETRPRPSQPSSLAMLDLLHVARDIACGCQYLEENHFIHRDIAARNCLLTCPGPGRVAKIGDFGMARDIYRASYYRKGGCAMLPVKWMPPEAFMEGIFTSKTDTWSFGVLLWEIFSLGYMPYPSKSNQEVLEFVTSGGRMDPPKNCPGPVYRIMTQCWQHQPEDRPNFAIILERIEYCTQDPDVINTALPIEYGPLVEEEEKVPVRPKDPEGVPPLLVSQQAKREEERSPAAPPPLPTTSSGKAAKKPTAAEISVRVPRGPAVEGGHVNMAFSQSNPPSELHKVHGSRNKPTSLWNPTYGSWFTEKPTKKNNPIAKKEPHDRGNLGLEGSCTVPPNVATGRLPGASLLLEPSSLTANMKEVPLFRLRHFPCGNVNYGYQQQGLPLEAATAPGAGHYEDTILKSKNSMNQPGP

CCc1ccccc1C(=O)Nc1n[nH]c2c(C)c(F)c(C3C(C#N)=C(C)N(C)C(C)=C3C#N)cc12 [BAY-3827]
inactive: [1] 88% | [2] 86% | [3] 100% | [4] 90% | [5] 57% | [6] 83% | [7] 100% | [8] 86% | [9] 100% | [10] 56% | [11] 100% | [12] 87%

CC1=C(C#N)C(c2ccc3c(c2)c(NC(=O)c2ccccc2C)nn3C)C(C#N)=C(C)N1 [BAY-974]
inactive: [1] 99% | [2] 77% | [3] 100% | [4] 55% | [5] 99% | [6] 80% | [7] 100% | [8] 100% | [9] 100% | [10] 70% | [11] 78% | [12] 93%
